Source: PMC7434922, “Key role of quinone in the mechanism of respiratory complex I” (Nature Communications, 2020)

How the values were obtained:
[1] = target: T1, T. thermophilus complex I (quinone site, Q-site) (Thermus thermophilus, UniProt Q56218+Q56220+Q60019); test: X-ray crystal structure; format: binding; conditions: crystal soaked overnight in 500 uM DQ, pH 6.0; Q-site (Y87_4, H38_4)
T1 construct: gene nqo4; native intact complex purified from T. thermophilus HB8 membranes in TDM; 16 subunits, 550 kDa; for crystals recombinant His-tagged Nqo16 (E. coli) was added; activity preparation has sub-stoichiometric Nqo16; with NADH-quinone oxidoreductase subunit 1; NADH-quinone oxidoreductase subunit 2; NADH-quinone oxidoreductase subunit 3; NADH-quinone oxidoreductase subunit 5; NADH-quinone oxidoreductase subunit 7; NADH-quinone oxidoreductase subunit 9; NADH-quinone oxidoreductase subunit 10; NADH-quinone oxidoreductase subunit 11; NADH-quinone oxidoreductase subunit 12; NADH-quinone oxidoreductase subunit 13; NADH-quinone oxidoreductase subunit 14; NADH-quinone oxidoreductase subunit 15; NADH-quinone oxidoreductase subunit 16

[2] = target: T2, T. thermophilus complex I (NADH/FMN site, subunit Nqo1) (Thermus thermophilus, UniProt Q56222); test: X-ray crystal structure; format: binding; conditions: resident cofactor in Nqo1; same crystal
T2 construct: same complex as P1, native from HB8 membranes; crystals with added recombinant His-tagged Nqo16; cryo-EM samples without Nqo16 (15 subunits); with NADH-quinone oxidoreductase subunit 2; NADH-quinone oxidoreductase subunit 3; NADH-quinone oxidoreductase subunit 4; NADH-quinone oxidoreductase subunit 5; NADH-quinone oxidoreductase subunit 6; NADH-quinone oxidoreductase subunit 7; NADH-quinone oxidoreductase subunit 8; NADH-quinone oxidoreductase subunit 9; NADH-quinone oxidoreductase subunit 10; NADH-quinone oxidoreductase subunit 11; NADH-quinone oxidoreductase subunit 12; NADH-quinone oxidoreductase subunit 13; NADH-quinone oxidoreductase subunit 14; NADH-quinone oxidoreductase subunit 15; NADH-quinone oxidoreductase subunit 16
T2 sequence (Q56222 1-438): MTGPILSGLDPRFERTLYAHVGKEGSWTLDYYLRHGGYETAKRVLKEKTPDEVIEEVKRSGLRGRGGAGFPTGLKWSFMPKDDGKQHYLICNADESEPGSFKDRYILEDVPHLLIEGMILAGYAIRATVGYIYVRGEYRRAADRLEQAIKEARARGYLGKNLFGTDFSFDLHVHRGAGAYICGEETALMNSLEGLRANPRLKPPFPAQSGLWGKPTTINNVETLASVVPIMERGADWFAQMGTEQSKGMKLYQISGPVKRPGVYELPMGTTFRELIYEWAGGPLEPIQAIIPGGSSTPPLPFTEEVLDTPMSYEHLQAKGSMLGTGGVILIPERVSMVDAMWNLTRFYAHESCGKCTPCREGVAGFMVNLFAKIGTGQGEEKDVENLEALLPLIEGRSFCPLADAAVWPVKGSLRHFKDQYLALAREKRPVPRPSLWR
T2 sequence (Q56221 2-181 partner): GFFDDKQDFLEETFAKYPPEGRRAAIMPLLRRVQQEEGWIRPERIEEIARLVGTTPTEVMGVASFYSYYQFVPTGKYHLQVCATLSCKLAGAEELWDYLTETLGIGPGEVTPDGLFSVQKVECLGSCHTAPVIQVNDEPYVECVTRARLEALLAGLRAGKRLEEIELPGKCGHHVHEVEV
T2 sequence (Q56223 1-783 partner): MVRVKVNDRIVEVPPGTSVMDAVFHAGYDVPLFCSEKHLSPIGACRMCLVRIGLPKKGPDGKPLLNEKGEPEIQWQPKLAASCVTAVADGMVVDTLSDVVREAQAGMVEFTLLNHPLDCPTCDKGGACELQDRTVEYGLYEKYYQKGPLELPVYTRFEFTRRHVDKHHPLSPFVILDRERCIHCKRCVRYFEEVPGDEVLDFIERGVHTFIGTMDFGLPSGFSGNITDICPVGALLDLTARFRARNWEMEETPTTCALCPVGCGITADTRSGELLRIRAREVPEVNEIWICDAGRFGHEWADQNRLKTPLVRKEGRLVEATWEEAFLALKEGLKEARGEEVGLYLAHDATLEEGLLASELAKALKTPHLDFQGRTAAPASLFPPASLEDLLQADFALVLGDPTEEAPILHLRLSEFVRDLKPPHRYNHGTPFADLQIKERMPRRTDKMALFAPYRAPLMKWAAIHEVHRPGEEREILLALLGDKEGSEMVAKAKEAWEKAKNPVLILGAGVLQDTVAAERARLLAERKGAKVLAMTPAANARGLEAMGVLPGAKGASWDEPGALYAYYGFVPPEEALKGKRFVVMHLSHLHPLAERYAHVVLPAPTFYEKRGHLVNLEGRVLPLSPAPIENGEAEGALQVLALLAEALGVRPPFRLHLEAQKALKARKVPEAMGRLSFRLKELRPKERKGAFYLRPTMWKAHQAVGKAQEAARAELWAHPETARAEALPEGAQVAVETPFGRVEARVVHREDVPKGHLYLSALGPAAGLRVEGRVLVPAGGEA

[3] = target: T2, T. thermophilus complex I (NADH/FMN site, subunit Nqo1); test: X-ray crystal structure; also cryo-EM (6ZIY); format: binding; conditions: crystal soaked 4.5 min in 20 mM NADH, 20 mM dithionite, anaerobic, pH 6.0
[4] = target: T3, Complex I subunit Nqo10 (Thermus thermophilus) (T. thermophilus HB8, UniProt Q56225 1-176); test: crystal structure; intact complex I purified from T. thermophilus mixed with purified recombinant Nqo16 (1:0.2 CXI:Nqo16), sitting drop at 23 °C, 100 mM Bis-Tris pH 6.0, 19-25% PEG 4000, 100 mM KCl, 100 mM glutaric acid, detergents; native crystals and crystals soaked or co-crystallised with NADH, decylubiquinone, piericidin A, aureothin or pyridaben; conditions: both partners purified
T3 construct: Nqo10, core subunit of the membrane domain of respiratory complex I, Thermus thermophilus HB8; Endogenous subunit inside the crystallised intact complex; source: purified from T. thermophilus HB8 cells as part of intact complex I (anion exchange, cation exchange, gel filtration)
T3 sequence (looked up): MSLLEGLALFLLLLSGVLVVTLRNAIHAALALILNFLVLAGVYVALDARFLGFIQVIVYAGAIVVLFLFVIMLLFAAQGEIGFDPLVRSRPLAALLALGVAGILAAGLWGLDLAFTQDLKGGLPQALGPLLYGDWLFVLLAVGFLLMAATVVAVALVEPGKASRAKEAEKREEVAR

[5] = target: T4, Complex I antiporter-like subunit Nqo14 (Thermus thermophilus) (T. thermophilus HB8, UniProt Q56229 1-427); test: as above; conditions: both partners purified
T4 construct: Nqo14, antiporter-like core subunit of the membrane domain of respiratory complex I, Thermus thermophilus HB8; Endogenous subunit inside the crystallised intact complex; source: purified from T. thermophilus HB8 cells as part of intact complex I (anion exchange, cation exchange, gel filtration)
T4 sequence (looked up): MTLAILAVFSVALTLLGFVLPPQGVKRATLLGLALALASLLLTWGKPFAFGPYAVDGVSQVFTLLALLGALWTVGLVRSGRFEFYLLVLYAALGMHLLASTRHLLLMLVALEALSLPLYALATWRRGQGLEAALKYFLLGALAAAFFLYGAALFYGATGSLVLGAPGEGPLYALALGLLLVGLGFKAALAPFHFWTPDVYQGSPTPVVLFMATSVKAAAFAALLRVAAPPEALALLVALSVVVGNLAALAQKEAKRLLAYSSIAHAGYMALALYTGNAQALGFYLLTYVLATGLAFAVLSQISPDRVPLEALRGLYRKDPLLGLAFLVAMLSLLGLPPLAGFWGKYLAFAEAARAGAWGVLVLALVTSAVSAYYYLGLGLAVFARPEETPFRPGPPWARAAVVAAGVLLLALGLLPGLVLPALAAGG

Question: How did the X-ray crystal structure [1] turn out when CCCCCCCCCCC1=C(C)C(=O)C(OC)=C(OC)C1=O [DQ, decylubiquinone] was run?
Answer: DQ interacts mainly with the residues mentioned above with its hydrocarbon chain surrounded by

Question: How did the X-ray crystal structure [2] turn out when Cc1cc2nc3c(=O)[nH]c(=O)nc-3n(C[C@H](O)[C@H](O)[C@H](O)COP(=O)(O)O)c2cc1C [FMN, flavin-mononucleotide] was run?
Answer: The FMN is coordinated by subunit Nqo1 at the deep end

Question: For NC(=O)C1=CN([C@@H]2O[C@H](COP(=O)(O)OP(=O)(O)OC[C@H]3O[C@@H](n4cnc5c(N)ncnc54)[C@H](O)[C@@H]3O)[C@@H](O)[C@H]2O)C=CC1 [NADH], which “X-ray crystal structure; also cryo-EM (6ZIY)” value [3] is on record?
Answer: Our crystal structure of intact complex I with bound NADH confirms the binding mode

B1: Complex I subunit Nqo11 (Thermus thermophilus) (natural protein, T. thermophilus HB8, UniProt Q56226 1-95, looked up)
chain: MSYLLTSALLFALGVYGVLTRRTAILVFLSIELMLNAANLSLVGFARAYGLDGQVAALMVIAVAAAEVAVGLGLIVAIFRHRESTAVDDLSELRG
notes: Nqo11, core subunit of the membrane domain of respiratory complex I, Thermus thermophilus HB8; Endogenous subunit inside the crystallised intact complex; source: purified from T. thermophilus HB8 cells as part of intact complex I (anion exchange, cation exchange, gel filtration)
Question: Does B1 bind [4]?
Answer: binds

Question: Does B1 bind [5]?
Answer: binds
